Measurements as given in the NIST ThermoML archive (doi:10.1016/j.jct.2007.05.011).
± gives the expanded uncertainty stated by the source.

Assay: xn = mol fraction of the nth substance listed
Conditions: 101 kPa, Liquid; for mass density: Vibrating tube method

NCCO.O=CO [2-hydroxyethylammonium formate] + CCO
mass density (315.65 K, x2 = 0.5): 1024.77 ± 30 kg/m3 | mass density (315.65 K, x2 = 0.598): 986.208 ± 30 kg/m3 | mass density (315.65 K, x2 = 0.701): 942.365 ± 30 kg/m3 | mass density (315.65 K, x2 = 0.799): 892.716 ± 30 kg/m3 | mass density (315.65 K, x2 = 0.9): 836.524 ± 30 kg/m3 | mass density (315.65 K, x2 = 0.95): 805.362 ± 30 kg/m3 | speed of sound (315.65 K, x2 = 0): 1666.7 ± 9.7 m/s | speed of sound (315.65 K, x2 = 0.058): 1684.1 ± 9.6 m/s | speed of sound (315.65 K, x2 = 0.098): 1664.5 ± 9.4 m/s | speed of sound (315.65 K, x2 = 0.193): 1620.9 ± 9.1 m/s | speed of sound (315.65 K, x2 = 0.296): 1576 ± 8.7 m/s | speed of sound (315.65 K, x2 = 0.399): 1521.5 ± 8.3 m/s | speed of sound (315.65 K, x2 = 0.5): 1460.5 ± 7.9 m/s | speed of sound (315.65 K, x2 = 0.598): 1395.6 ± 7.5 m/s | speed of sound (315.65 K, x2 = 0.701): 1325.5 ± 7.2 m/s | speed of sound (315.65 K, x2 = 0.799): 1252 ± 6.8 m/s | speed of sound (315.65 K, x2 = 0.9): 1174.9 ± 6.4 m/s | speed of sound (315.65 K, x2 = 0.95): 1133.4 ± 6.2 m/s | mass density (318.15 K, x2 = 0): 1162.29 ± 31 kg/m3 | mass density (318.15 K, x2 = 0.058): 1153.16 ± 31 kg/m3 | mass density (318.15 K, x2 = 0.098): 1141.07 ± 30 kg/m3 | mass density (318.15 K, x2 = 0.193): 1115.42 ± 30 kg/m3 | mass density (318.15 K, x2 = 0.296): 1089.4 ± 30 kg/m3 | mass density (318.15 K, x2 = 0.399): 1058.44 ± 30 kg/m3 | mass density (318.15 K, x2 = 0.5): 1022.96 ± 30 kg/m3 | mass density (318.15 K, x2 = 0.598): 984.346 ± 30 kg/m3 | mass density (318.15 K, x2 = 0.701): 940.437 ± 30 kg/m3 | mass density (318.15 K, x2 = 0.799): 890.71 ± 30 kg/m3 | mass density (318.15 K, x2 = 0.9): 834.423 ± 30 kg/m3 | mass density (318.15 K, x2 = 0.95): 803.205 ± 30 kg/m3 | speed of sound (318.15 K, x2 = 0): 1660.8 ± 9.6 m/s | speed of sound (318.15 K, x2 = 0.058): 1679 ± 9.6 m/s | speed of sound (318.15 K, x2 = 0.098): 1659.2 ± 9.4 m/s | speed of sound (318.15 K, x2 = 0.193): 1615.5 ± 9.1 m/s | speed of sound (318.15 K, x2 = 0.296): 1570.4 ± 8.7 m/s | speed of sound (318.15 K, x2 = 0.399): 1515.6 ± 8.3 m/s | speed of sound (318.15 K, x2 = 0.5): 1454.4 ± 7.9 m/s | speed of sound (318.15 K, x2 = 0.598): 1389.2 ± 7.5 m/s | speed of sound (318.15 K, x2 = 0.701): 1318.7 ± 7.1 m/s | speed of sound (318.15 K, x2 = 0.799): 1244.8 ± 6.7 m/s | speed of sound (318.15 K, x2 = 0.9): 1167.2 ± 6.3 m/s | speed of sound (318.15 K, x2 = 0.95): 1125.4 ± 6.2 m/s | mass density (320.65 K, x2 = 0): 1160.51 ± 31 kg/m3 | mass density (320.65 K, x2 = 0.058): 1151.51 ± 31 kg/m3 | mass density (320.65 K, x2 = 0.098): 1139.41 ± 30 kg/m3 | mass density (320.65 K, x2 = 0.193): 1113.73 ± 30 kg/m3 | mass density (320.65 K, x2 = 0.296): 1087.69 ± 30 kg/m3 | mass density (320.65 K, x2 = 0.399): 1056.68 ± 30 kg/m3 | mass density (320.65 K, x2 = 0.5): 1021.15 ± 30 kg/m3 | mass density (320.65 K, x2 = 0.598): 982.484 ± 30 kg/m3 | mass density (320.65 K, x2 = 0.701): 938.509 ± 30 kg/m3 | mass density (320.65 K, x2 = 0.799): 888.697 ± 30 kg/m3 | mass density (320.65 K, x2 = 0.9): 832.314 ± 30 kg/m3 | mass density (320.65 K, x2 = 0.95): 801.039 ± 30 kg/m3 | speed of sound (320.65 K, x2 = 0): 1654.8 ± 9.6 m/s | speed of sound (320.65 K, x2 = 0.058): 1673.9 ± 9.6 m/s | speed of sound (320.65 K, x2 = 0.098): 1654 ± 9.4 m/s | speed of sound (320.65 K, x2 = 0.193): 1610.1 ± 9 m/s | speed of sound (320.65 K, x2 = 0.296): 1564.8 ± 8.7 m/s | speed of sound (320.65 K, x2 = 0.399): 1509.9 ± 8.3 m/s | speed of sound (320.65 K, x2 = 0.5): 1448.2 ± 7.9 m/s | speed of sound (320.65 K, x2 = 0.598): 1382.8 ± 7.5 m/s | speed of sound (320.65 K, x2 = 0.701): 1311.8 ± 7.1 m/s | speed of sound (320.65 K, x2 = 0.799): 1237.6 ± 6.7 m/s | speed of sound (320.65 K, x2 = 0.9): 1159.5 ± 6.3 m/s | speed of sound (320.65 K, x2 = 0.95): 1117.5 ± 6.1 m/s | mass density (323.15 K, x2 = 0): 1158.73 ± 31 kg/m3 | mass density (323.15 K, x2 = 0.058): 1149.88 ± 31 kg/m3 | mass density (323.15 K, x2 = 0.098): 1137.78 ± 30 kg/m3 | mass density (323.15 K, x2 = 0.193): 1112.06 ± 30 kg/m3 | mass density (323.15 K, x2 = 0.296): 1085.98 ± 30 kg/m3 | mass density (323.15 K, x2 = 0.399): 1054.93 ± 30 kg/m3 | mass density (323.15 K, x2 = 0.5): 1019.35 ± 30 kg/m3 | mass density (323.15 K, x2 = 0.598): 980.632 ± 30 kg/m3 | mass density (323.15 K, x2 = 0.701): 936.584 ± 30 kg/m3 | mass density (323.15 K, x2 = 0.799): 886.69 ± 30 kg/m3 | mass density (323.15 K, x2 = 0.9): 830.212 ± 30 kg/m3 | mass density (323.15 K, x2 = 0.95): 798.879 ± 30 kg/m3 | speed of sound (323.15 K, x2 = 0): 1648.9 ± 9.6 m/s | speed of sound (323.15 K, x2 = 0.058): 1668.8 ± 9.6 m/s | speed of sound (323.15 K, x2 = 0.098): 1648.8 ± 9.4 m/s | speed of sound (323.15 K, x2 = 0.193): 1604.7 ± 9 m/s | speed of sound (323.15 K, x2 = 0.296): 1559.4 ± 8.7 m/s | speed of sound (323.15 K, x2 = 0.399): 1504.2 ± 8.3 m/s | speed of sound (323.15 K, x2 = 0.5): 1442.1 ± 7.9 m/s | speed of sound (323.15 K, x2 = 0.598): 1376.5 ± 7.5 m/s | speed of sound (323.15 K, x2 = 0.701): 1305.1 ± 7.1 m/s | speed of sound (323.15 K, x2 = 0.799): 1230.5 ± 6.7 m/s | speed of sound (323.15 K, x2 = 0.9): 1152 ± 6.3 m/s | speed of sound (323.15 K, x2 = 0.95): 1109.7 ± 6.1 m/s
